Series [1] has as its target Granzyme B (human lymphocytes) (Homo sapiens (Human), UniProt P10144). Nature of the series: human Granzyme B biochemical assay. In a few lines:
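Enzyme (10 nM working stock, assay buffer with 0.1% BSA) pre-incubated with compound for 30 min at 22 °C, then Ac-IETD-AFC (800 µM working stock) added for 60 min at 22 °C in the dark. Fluorescence read at Ex 400/Em 505 nm; 8-point 3.16-fold series (40 µM top working stock); IC50 from % inhibition versus standard-inhibitor and DMSO controls.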

Series [2] is described as follows: metabolic stability assay using liver microsomes. The series is classed as in vitro ADME. Particulars: human liver microsomes, with NRS at 37° C. The procedure:
In addition, compounds of Formula I-VIII described above are also tested in the metabolic stability assay using liver microsomes, as provided below.
Buffer pH7.4: Prepare 1 (M) KH2PO4 and 1 (M) K2HPO4. Titrate 1(M) K2HPO4 with 1 (M) KH2PO4 to obtain pH 7.40. Dilute this buffer 10 fold in Water (30 ml buffer+270 ml of water) to obtain 100 mM phosphate buffer. Adjust pH to 7.40±0.02 using 5(N) HCl or 5(N) NaOH.
NADPH Regeneration System (NRS): Prepare a solution containing 13 mM NADP, 33 mM Glucose-6-phosphate, 33 mM MgCl2 and 4 U/ml Glucose-6-phosphate dehydrogenase in buffer.
Liver Microsome (LM) suspension: Thaw LM vial on ice, then mix 1.0 ml LM (20 mg/ml) with 19 ml buffer [final LM Conc: 1 mg/ml]
LM+NRS suspension: Mix 5.0 ml NRS with 20 ml LM suspension [final LM Conc: 0.8 mg/ml]
System suitability standard: a synthesized compound having Mol wt 686.2 used as System suitability standard. Dissolve this compound in ice-cold acetonitrile to obtain concentration of 0.1 μg/ml and store at 4° C.
Compound Stock: 10 mM in DMSO
Sub stock (100 μM): 4 μl of 10 mM Compound Stock+[…] Acetonitrile
Working plate (2 μM): 10 μl of 100 μM Sub stock+490 μl buffer
Incubate all plastic materials including tips at 37° C. overnight.
Incubate LM suspension and NRS at 37° C. for 15 min before use.
Add 40 μl buffer to the wells of blank plate.
Add 40 μl compound (from working plate) to 0, 5, 10, 20, 30 and 60 min plates.
Initiate reaction by adding 40 μl of LM+NRS suspension in each plate.
Terminate reaction by adding 240 μl ice-cold acetonitrile containing system suitability standard at designated time points. For T=0 add 240 μl ice-cold acetonitrile containing system suitability standard before LM+NRS addition.
Centrifuge (3500 rpm, 20 min and 15° C.) the plates.
Mix 110 μl supernatant with 110 μl water and quantitate amount of Compound in the solution using LC-MS/MS.
For Scaled CLint & Predicted CL use the relevant physiological parameters, as applicable.
Human LM: Corning, Cat #25117
Mouse LM: Xenotech, Cat #M1000
(2) Volumes mentioned in the protocol are representative values and may change depending on number of test compounds.
(3) It is assumed that the compounds are chemically stable in the assay system/buffer.
The metabolic stability assay described above can be performed using different test concentrations, LM Concentrations, or time points.
Certain compounds of this disclosure were tested in the microsomal stability assay provided above.

Setting [3] is: Granzyme B IC50 as repeated in Table 7.
[4] abbreviates: Granzyme B (human lymphocytes) 5 nM, substrate Ac-IETD-AFC 200 μM, Cpd incubation with enzyme 30 mins, 22° C., read time 60 mins, read-out: IC50.
Where [5] appears, read: Granzyme B IC50 as repeated in Table 7, read-out: IC50.

Data on nine molecules can be found in patent US11667645B2, “Granzyme B directed imaging and therapy” (CytoSite Biopharma Inc., priority 2018, dated 2023).

Read-outs that look alike come from different tables or passages of the source.

Chain of Granzyme B (human lymphocytes) (P10144 21-247): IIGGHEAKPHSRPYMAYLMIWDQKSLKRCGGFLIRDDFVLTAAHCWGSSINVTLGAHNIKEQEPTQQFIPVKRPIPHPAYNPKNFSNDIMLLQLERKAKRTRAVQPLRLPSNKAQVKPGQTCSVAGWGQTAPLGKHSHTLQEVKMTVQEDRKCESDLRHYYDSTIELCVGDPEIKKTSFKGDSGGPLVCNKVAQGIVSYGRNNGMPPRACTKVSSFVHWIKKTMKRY

Take `CC(C)[C@H](NC(=O)CF)C(=O)N[C@H]1CCc2cccc3c2N(C1=O)[C@H](C(=O)NCc1c[nH]nn1)C3` [Compound C057, (2S,5S)-5-[(S)-2-(2-Fluoro-acetylamino)-3-methyl-butyrylamino]-4-oxo-1,2,4,5,6,7-hexahydro-azepino[3,2,1-hi]indole-2-carboxylic acid (1H-[1,2,3]triazol-4-ylmethyl)-amide]: the IC50 in series [1] and in series [1] (setting [3]) was 1 to 300 nM throughout. The “HLM % remaining @ 30 min” value in series [2] is “*** (the symbol “***” indicates a remaining percentage of 71-100%)”.
As to `CC[C@H](C)[C@H](NC(=O)COCCF)C(=O)N[C@H]1CCc2cccc3c2N(C1=O)[C@H](C(=O)NCc1c[nH]nn1)C3` [Compound C058, (2S,5S)-5-{(2S,3S)-2-[2-(2-Fluoro-ethoxy)-acetylamino]-3-methyl-pentanoylamino}-4-oxo-1,2,4,5,6,7-hexahydro-azepino[3,2,1-hi]indole-2-carboxylic acid (1H-[1,2,3]-triazol-4-ylmethyl)-amide], the IC50 in series [1] (setting [4]) and in series [1] (setting [5]) was 1 to 300 nM in each case. In addition, the “HLM % remaining @ 30 min” value in series [2] is “*** (the symbol “***” indicates a remaining percentage of 71-100%)”.
`CC(=O)N[C@H](C(=O)N[C@H]1CCc2cccc3c2N(C1=O)[C@H](C(=O)NCc1c[nH]nn1)C3)C(C)C` [Compound C025, (2S,5S)-5-((S)-2-Acetylamino-3-methyl-butyrylamino)-4-oxo-1,2,4,5,6,7-hexahydro-azepino[3,2,1-hi]indole-2-carboxylic acid (1H-[1,2,3]triazol-4-ylmethyl)-amide]: the IC50 in series [1] (setting [4]) and in series [1] (setting [5]) was 1 to 300 nM in each case. The “HLM % remaining @ 30 min” value in series [2] is “*** (the symbol “***” indicates a remaining percentage of 71-100%)”.
Take `CC[C@@H](C)[C@H](NC(=O)c1ccccc1)C(=O)N[C@H]1CCc2cccc3c2N(C1=O)[C@H](C(=O)NCc1c[nH]nn1)C3` [Compound C053, (2S,5S)-5-((2S,3R)-2-Benzoylamino-3-methyl-pentanoylamino)-4-oxo-1,2,4,5,6,7-hexahydro-azepino[3,2,1-hi]indole-2-carboxylic acid (1H-[1,2,3]triazol-4-ylmethyl)-amide]: the IC50 in series [1] (setting [4]) and in series [1] (setting [5]) was 1 to 300 nM throughout. In addition, in series [2], the “HLM % remaining @ 30 min” value was “** (“**” indicates a remaining percentage of 31-70%)”.
Regarding `CC(C)[C@H](NC(=O)c1ccccc1)C(=O)N[C@H]1CCc2cccc3c2N(C1=O)[C@H](C(=O)NCc1c[nH]nn1)C3` [Compound C036, (2S,5S)-5-((S)-2-Benzoylamino-3-methyl-butyrylamino)-4-oxo-1,2,4,5,6,7-hexahydro-azepino[3,2,1-hi]indole-2-carboxylic acid (1H-[1,2,3]triazol-4-ylmethyl)-amide], the IC50 in series [1] (setting [4]) and in series [1] (setting [5]) was 1 to 300 nM throughout. For the same molecule, the “HLM % remaining @ 30 min” value in series [2] is listed as “*** (the symbol “***” indicates a remaining percentage of 71-100%)”.
`CC[C@H](C)[C@H](NC(=O)c1ccccc1)C(=O)N[C@H]1COc2cccc3c2N(C1=O)[C@H](C(=O)NCc1c[nH]nn1)C3` [Compound C096, (1S,8S)-8-((2S,3S)-2-Benzoylamino-3-methyl-pentanoylamino)-9-oxo-1,2,8,9-tetrahydro-7H-6-oxa-9a-aza-benzo[cd]azulene-1-carboxylic acid (1H-[1,2,3]triazol-4-ylmethyl)-amide]: the half-maximal inhibitory concentration (IC50) in series [1] (setting [4]) and in series [1] (setting [5]) was 1 to 300 nM in each case. The “HLM % remaining @ 30 min” value in series [2] is “** (“**” indicates a remaining percentage of 31-70%)”.
For `CC[C@H](C)[C@H](NC(=O)CF)C(=O)N[C@H]1COc2cccc3c2N(C1=O)[C@H](C(=O)NCc1c[nH]nn1)C3` [Compound C098, (1S,8S)-8-[(2S,3S)-2-(2-Fluoro-acetylamino)-3-methyl-pentanoylamino]-9-oxo-1,2,8,9-tetrahydra-7H-6-oxa-9a-aza-benzo[cd]azulene-1-carboxylic acid (1H-[1,2,3]triazol-4-ylmethyl)-amide], the half-inhibitory concentration (IC50) in series [1] and in series [1] (setting [3]) was 1 to 300 nM in each case. In addition, the “HLM % remaining @ 30 min” value in series [2] is “*** (the symbol “***” indicates a remaining percentage of 71-100%)”.
For `CC[C@H](C)[C@H](NC(=O)c1ccnc(F)c1)C(=O)N[C@H]1CCc2cccc3c2N(C1=O)[C@H](C(=O)NCc1c[nH]nn1)C3` [Compound C141, (2S,5S)-5-{(2S,3S)-2-[(2-Fluoro-pyridine-4-carbonyl)-amino]-3-methyl-pentanoylamino}4-oxo-1,2,4,5,6,7-hexahydro-azepino[3,2,1-hi]indole-2-carboxylic acid (1H-[1,2,3]triazol-4-ylmethyl)-amide], the concentration for half-maximal inhibition (IC50) in series [1] (setting [4]) and in series [1] (setting [5]) was 1 to 300 nM each time. In series [2], the “HLM % remaining @ 30 min” value is given as “*** (the symbol “***” indicates a remaining percentage of 71-100%)”.
Regarding `CC[C@H](C)[C@H](NC(C)=O)C(=O)N[C@H]1CCc2cccc3c2N(C1=O)[C@H](C(=O)NCc1c[nH]nn1)C3` [Compound C028, (2S,5S)-5-((2S,3S)-2-Acetylamino-3-methyl-pentanoylamino)-4-oxo-1,2,4,5,6,7-hexahydro-azepino[3,2,1-hi]indole-2-carboxylic acid (1H-[1,2,3]triazol-4-ylmethyl)-amide], the 50% inhibitory concentration (IC50) in series [1] (setting [4]) and in series [1] (setting [5]) was 1 to 300 nM throughout. For the same molecule, the “HLM % remaining @ 30 min” value in series [2] is reported as “*** (the symbol “***” indicates a remaining percentage of 71-100%)”.
